Data reported in ChEMBL document CHEMBL2040731, “Synthesis and anti-HIV activity of lupane and olean-18-ene derivatives. Absolute configuration of 19,20-epoxylupanes by VCD” (J Nat Prod, 2012).
Active and inactive are the calls of the source. No cut-off for these calls is given here.

Legend:
HeLa [1] = assay: Inhibition of X4-tropic HIV1 envelope glycoprotein-mediated cell-cell fusion between viral envelope expressing human virus-infected HeLa ADA cells to human HeLa P5 cells at 5 uM after 16 hrs by beta-galactosidase reporter gene assay using chemiluminescence method; assay type: cell-based; conditions: Human immunodeficiency virus 1
HeLa [2] = assay: Inhibition of R5-tropic HIV1 envelope glycoprotein-mediated cell-cell fusion between viral envelope expressing human virus-infected HeLa ADA cells to human HeLa P5 cells at 5 uM after 16 hrs by beta-galactosidase reporter gene assay using chemiluminescence method; assay type: cell-based; conditions: Human immunodeficiency virus 1

SMILES: C=C(C)[C@@H]1CC[C@]2(C)CC[C@]3(C)[C@H](CC[C@@H]4[C@@]5(C)CC[C@H](O)C(C)(C)[C@@H]5CC[C@]43C)[C@@H]12
- inhibition (HeLa [1]): inactive
- inhibition (HeLa [2]): inactive

SMILES: C=C(C=O)[C@@H]1CC[C@]2(C)CC[C@]3(C)[C@H](CC[C@@H]4[C@@]5(C)C=CC(=O)C(C)(C)[C@@H]5CC[C@]43C)[C@@H]12
- inhibition (HeLa [1]): 44%
- inhibition (HeLa [2]): 28%

SMILES: C=C(C)[C@@H]1CC[C@]2(C)CC[C@]3(C)[C@H](CC[C@@H]4[C@@]5(C)CC[C@H](OC(C)=O)C(C)(C)[C@@H]5CC[C@]43C)[C@@H]12
- inhibition (HeLa [1]): 15%
- inhibition (HeLa [2]): 31%

SMILES: C=C(C=O)[C@@H]1CC[C@]2(C)CC[C@]3(C)[C@H](CC[C@@H]4[C@@]5(C)CC[C@H](OC(C)=O)C(C)(C)[C@@H]5CC[C@]43C)[C@@H]12
- inhibition (HeLa [1]): 6%
- inhibition (HeLa [2]): 41%

SMILES: CC(=O)O[C@H]1CC[C@]2(C)[C@H]3CC[C@@H]4[C@H]5[C@H]([C@@]6(C)CO6)CC[C@]5(C)CC[C@@]4(C)[C@]3(C)CC[C@H]2C1(C)C
- inhibition (HeLa [1]): 6%
- inhibition (HeLa [2]): 26%

SMILES: C=C(C=O)[C@@H]1CC[C@]2(C)CC[C@]3(C)[C@H](CC[C@@H]4[C@@]5(C)CC[C@H](O)C(C)(C)[C@@H]5CC[C@]43C)[C@@H]12
- inhibition (HeLa [1]): inactive
- inhibition (HeLa [2]): inactive

SMILES: C=C(C)[C@@H]1CC[C@]2(C)CC[C@]3(C)[C@H](CC[C@@H]4[C@@]5(C)CCC(=O)C(C)(C)[C@@H]5CC[C@]43C)[C@@H]12
- inhibition (HeLa [1]): inactive
- inhibition (HeLa [2]): inactive

SMILES: CC1(C)C=C2[C@H]3CC[C@@H]4[C@@]5(C)CC[C@H](O)C(C)(C)[C@@H]5CC[C@@]4(C)[C@]3(C)CC[C@@]2(C)CC1
- inhibition (HeLa [1]): inactive
- inhibition (HeLa [2]): inactive

SMILES: CC(=O)O[C@H]1CC[C@]2(C)[C@H]3CC[C@@H]4[C@]56O[C@H]5C(C)(C)CC[C@]6(C)CC[C@@]4(C)[C@]3(C)CC[C@H]2C1(C)C
- inhibition (HeLa [1]): inactive
- inhibition (HeLa [2]): inactive

SMILES: C=C(C)[C@@H]1CC[C@]2(CO)CC[C@]3(C)[C@H](CC[C@@H]4[C@@]5(C)CC[C@H](O)C(C)(C)[C@@H]5CC[C@]43C)[C@@H]12
- inhibition (HeLa [1]): 34%
- inhibition (HeLa [2]): 17%

SMILES: C=C(C=O)[C@@H]1CC[C@]2(CO)CC[C@]3(C)[C@H](CC[C@@H]4[C@@]5(C)CC[C@H](O)C(C)(C)[C@@H]5CC[C@]43C)[C@@H]12
- inhibition (HeLa [1]): 10%
- inhibition (HeLa [2]): 26%

SMILES: C=C(C)[C@@H]1CC[C@]2(C)CC[C@]3(C)[C@H](CC[C@@H]4[C@@]5(C)CC/C(=N\O)C(C)(C)[C@@H]5CC[C@]43C)[C@@H]12
- inhibition (HeLa [1]): 23%
- inhibition (HeLa [2]): 7%
